Columns and labels:
[1] = tested on: rat model of hyponatremia; experiment: Rat model of dDAVP-induced hyponatremia; format: in vivo
Procedure: Hyponatremia was induced in rats by continuous infusion of 10 ng/h of dDAVP and water gavage (Figure 2A). At day 0 (D0), the basal plasma sodium concentration was 145 ± 6 mM. […] In controls, plasma sodium decreased to 134 ± 1 mM and 125 ± 3 mM at D3 and D4, respectively. […] The concentration of 10 µg/kg increased plasma sodium by 12 mmol/l/24 h. This is considered as the highest acceptable correction rate in humans in order to avoid risk of osmotic demyelination. Rat weights were monitored during the experiment, each rat being its own reference.
Specific pathogen-free adult male Sprague-Dawley rats (body weight between 445 and 525 grams) were from Janvier laboratories (Le Genest St. Isle, 53941, Saint Berthevin Cedex, France) and acclimatized to the animal house conditions for 1 week. […] A stock […] solution of desmopressin (dDAVP) was prepared by dissolving 5 mg of drug in physiological saline. dDAVP was administered using subcutaneous ALZET osmotic mini-pumps (model 2002, DURECT Corporation, Cupertino, CA95014, USA) previously filled with a solution of dDAVP (pumping rate of 0.47±0.02 µL/h and mean fill volume of 233.6±4.7 µL). The dose of dDAVP (10 ng/h) was determined in preliminary experiments. Buprenorphine (Centravet, 03120 Lapalisse, France) was administered once a day at a dose of 0.02 mg/kg, s.c. from day 0 to day 3 in order to suppress post-operative pain. Water gavage (30 mL/kg) was performed 2 times per day (at 9 am and 4 pm) in the first 3 days following ALZET pump implantation, and at 9 am at day 4. Body weight was recorded every day in order to adjust for the volume of water to be administered. Rats had free access to standard rat chow, as well as water in their cages. […] On days 0, 2, 3 and 4, at 9 am, 400 µL of blood was collected from isoflurane- anesthetized rats from the tail vein with lithium heparinate (Sanofi-Aventis, Gentilly, France). Samples were centrifuged (4 °C, 2000 g, 5 min). Sodium was quantified by the Central Laboratory of the ENVT, Toulouse, France, on a VITROS 250/350/950/ 5, 1 FS, 4600 and integrated system VITROS 5600 (Ortho-Clinical Diagnostics, Buckinghamshire, United Kingdom). Multiple factor ANOVA followed by Tukey's test were used to test for significance. A P value < 0.05 was considered significant.

Sprague-Dawley rats = experiment: Diuresis and urine osmolality with daily i.p. injection of 3 nmol/kg for 4 days; format: in vivo, rat; details: daily i.p. 3 nmol/kg; for Diuresis Average / Excretion Average / Osmolarity Average: N=5
Procedure: We injected this dose daily for 4 days and measured urine volume and osmolality.
Sprague-Dawley rats are aged between 6 and 12 weeks, between 237 g and 545 g and were use up to 3 times. […] Urine was collected at various times, and centrifuged for 30 min at 20,800 g. Urine osmolality was determined with an osmometer (Knauer, Berlin, Germany). For the pharmacokinetic experiments, a catheter was implanted in the rat jugular vein five days before the experiment. Blood samples of 400 μl were taken at various times under heparin conditions. Blood was centrifuged at 2000 g for 5 min at 4 °C and plasma was frozen at -20 °C.

[2] = tested on: porcine kidney epithelial cells LLC-pk1; experiment: Confocal imaging of endogenous V2R in LLC-pk1 cells; format: cell-based; details: 3.4 µM, 30-min pre-incubation
Procedure: In cells endogenously expressing V2R, such as porcine kidney epithelial cells LLC-pk1, labeling of V2R with AFDye-488-MQ1 and Cy5.5-MQ1 (100 nM) was performed with either fresh or PFA-fixed cells (Figures 7A and B). […] In the pathophysiological context, three renal cancer cell lines (CAKI-2, ACHN and A498 [38]) known to express V2R were tested. […] The presence of V2R, at the cell membrane level, fluctuated as a function of cell density and the number of cell divisions, whatever the cell line used. […] To our knowledge, this is the first specific ligand labeling of V2R in non-permeabilized cancer cells.
Freshly dissociated CHO, LLC-PK1 or renal cancer cell lines expressing vasopressin receptors were seeded on 12-mm glass coverslips pre-coated with poly-ornithine, cultured for 48 h before incubation in DMEM, 0.2 mg/mL BSA, 25 mM HEPES, pH 7.4 for 1 h at 12°C or 30 min at 22 °C with fluorescent analogues in the absence or presence of non-fluorescent ligands (30-min pre-incubation). After 3 washes with cold PBS, the cells were finally fixed in 4% PFA overnight at 4 °C and mounted with Mowiol. The fluorescent cells were imaged using a Zeiss LSM510 Meta confocal microscope equipped with a ×63 (NA 1.4) oil immersion objective. For excitation, available laser rays were 488 and 633 nm and emission signals were collected in multitracking mode with appropriate band pass filters. […]

[3] = tested on: 156 other GPCRs (including V1aR, V1bR and OTR); details: at µM concentrations; cited from earlier work
Description: Named mambaquaretin (MQ1), this peptide was isolated from mamba snake venom.

**Q.** With mambaquaretin [MQ1] as the substance, how does the plasma sodium ([1]; 10 µg/kg ([…]) s.c. on days 2-4, D3) read?
**A.** Its plasma sodium is 145 ± 3 mM.

**Q.** What about the plasma sodium ([1]; 10 µg/kg ([…]) s.c. on days 2-4, D4) of the same substance?
**A.** The plasma sodium was 148 ± 2 mM.

**Q.** What about the plasma sodium ([1]; 100 µg/kg (16 nmol/kg) s.c. on days 2-4, D3) of the same substance?
**A.** Its plasma sodium is 146 ± 2 mM.

**Q.** What about the plasma sodium ([1]; 100 µg/kg (16 nmol/kg) s.c. on days 2-4, D4) of the same substance?
**A.** Its plasma sodium is 154 ± 2 mM.

**Q.** And the “half-life of diuresis decrease” value (Sprague-Dawley rats; day 1)?
**A.** Its value is 1.6 h.

**Q.** And the “Diuresis Average” value (Sprague-Dawley rats; day 1, 24-h period)?
**A.** Its value is 6.3 mL/h/kg.

**Q.** And the “Excretion Average” value (Sprague-Dawley rats; day 1, 24-h period)?
**A.** The value was 1919 µOsm/h/kg.

**Q.** What about the “Osmolarity Average” value (Sprague-Dawley rats; day 1, 24-h period) of the same substance?
**A.** The value was 328 mOsm/kg H2O.

**Q.** What about the “half-life of diuresis decrease” value (Sprague-Dawley rats; day 2) of the same substance?
**A.** The value was 1.3 h.

**Q.** And the “Diuresis Average” value (Sprague-Dawley rats; day 2, 24-h period)?
**A.** Its value is 5.9 mL/h/kg.

**Q.** What about the “Excretion Average” value (Sprague-Dawley rats; day 2, 24-h period) of the same substance?
**A.** The value was 1820 µOsm/h/kg.

**Q.** What about the “Osmolarity Average” value (Sprague-Dawley rats; day 2, 24-h period) of the same substance?
**A.** Its value is 317 mOsm/kg H2O.

**Q.** What about the “half-life of diuresis decrease” value (Sprague-Dawley rats; day 3) of the same substance?
**A.** Its value is 1.3 h.

**Q.** And the “Diuresis Average” value (Sprague-Dawley rats; day 3, 24-h period)?
**A.** Its value is 6.00 mL/h/kg.

**Q.** And the “Excretion Average” value (Sprague-Dawley rats; day 3, 24-h period)?
**A.** Its value is 1805 µOsm/h/kg.

**Q.** What about the “Osmolarity Average” value (Sprague-Dawley rats; day 3, 24-h period) of the same substance?
**A.** Its value is 313 mOsm/kg H2O.

**Q.** And the “half-life of diuresis decrease” value (Sprague-Dawley rats; day 4)?
**A.** The value was 1.6 h.

**Q.** What about the “Diuresis Average” value (Sprague-Dawley rats; day 4, 24-h period) of the same substance?
**A.** The value was 5.7 mL/h/kg.

**Q.** What about the “Excretion Average” value (Sprague-Dawley rats; day 4, 24-h period) of the same substance?
**A.** Its value is 1940 µOsm/h/kg.

**Q.** And the “Osmolarity Average” value (Sprague-Dawley rats; day 4, 24-h period)?
**A.** Its value is 326 mOsm/kg H2O.

**Q.** What about the “effect on labeling by AFDye-488-MQ1 and Cy5.5-MQ1” value [2] of the same substance?
**A.** The value was “inhibited the labeling”.

**Q.** What about the “affinity for 156 other GPCRs (including V1aR, V1bR and OTR)” value [3] of the same substance?
**A.** The value was “no affinity”.

— article PMC7545998, “A snake toxin as a theranostic agent for the type 2 vasopressin receptor” (Theranostics, 2020)
